Data from patent US4647672A, “Ascorbate 2-polyphosphate esters and method of making same” (priority 1985, dated 1987).
Where two headings read alike, the source gives them in different places. Blank lines part the entries; values can stand above or below the compound they belong to.

Experiments:
[1] = tested on: monkeys; settings: Machlin et al; cited from earlier work
[2] = tested on: guinea pigs; settings: Machlin 1976; cited from earlier work
[3] = tested on: fish; settings: fish and possibly crustacea; Halver et al 1975; cited from earlier work
[4] = Blank reactions without phosphatase: acid-catalyzed release of L-ascorbate in pH 5.0 acetate buffer; assay type: physicochemical; settings: 0.05 m acetate buffer, 25°, read-out: L-Ascorbate Released (%), Blank; for degraded at 0.25 h: reaction time 0.25 h; for degraded at 0.5 h: reaction time 0.50 h; for degraded at 1 h: reaction time 1.0 h; for degraded at 2 h: reaction time 2.0 h; for degraded at 3 h: reaction time 3.0 h; for degraded at 4 h: reaction time 4.0 h; for degraded at 8 h: reaction time 8.0 h; for degraded at 20 h: reaction time 20.0 h; for degraded at 5 h: reaction time 5.0 h
[5] = tested on: phosphatase present in wheat flour; test: in vitro; assay type: in vitro ADME
Experimental: (§1) When stirred with a dilute suspension of wheat flour at 25° C., ASMP was comletely hydrolyzed in 1 hr. whereas ASTP required approximately 10-20 hr. for 95% hydrolysis.
(§2) ^1 Enzymolysis and titration of Lascorbate released were done as
(§3) described in the footnote to Table I, except the phosphatase was that
(§4) present in wheat flour. Two grams of wheat flour was used in the 100 ml
(§5) enzymolysis reaction mixture.

[6] = in vitro; assay type: in vitro ADME, wheat; settings: wheat, wheat flour suspension, pH 5
Experimental: as §1, §2, §3, §4, §5

[7] = physchem; assay type: physicochemical; settings: for Stability (% Remaining) when reacted with aqueous hydrogen peroxide / remaining at 0.25 h / remaining at 1 h / remaining at 24 h / remaining at 72 h / remaining at 144 h / remaining at 192 h / remaining at 336 h: tris buffer, hydrogen peroxide; for Stability (% Remaining) when reacted with aqueous hydrogen peroxide: pH 7; for remaining at 0.25 h / remaining at 1 h / remaining at 24 h / remaining at 72 h / remaining at 144 h / remaining at 192 h / remaining at 336 h: pH 7, Stability (% Remaining) when reacted with aqueous hydrogen peroxide
Experimental: When ASTP and ASMP were treated under identical conditions (pH 7, 25° C.) with hydrogen peroxide for 8 days, 77% ASTP remained unreacted while 44% ASMP remained. After 14 days oxidation, 0% ASMP remained compared to 55% ASTP.
^1 Reaction mixture contained 0.05 mL of 30% aqueous hydrogen peroxid
and 200 micromoles of Lascorbate or its 2phosphorylated derivative in 100
ml of 0.05 TRIS buffer (pH 7.0). At a given reaction time, an aliquot (1
ml) of a reaction mixture containing the 2phosphorylated ester was dilute
10 fold with TRIS buffer at pH 7, and the uv absorbance of the mixture
read at 258 nm. To follow loss of Lascorbic acid, an aliquot (1 ml) of th
reaction mixture was diluted with 2% metaphosphoric acid, and the uv
absorbance read at 245 nm.

[8] = tested on: Acid Phosphatase from Potato; test: in vitro; assay type: in vitro ADME
Experimental: (§6) It has also been confirmed that behavior of the 2-monophosphate ester of L-ascorbate, ASMP, towards the enzyme phosphatase is different than the behavior of the 2-triphopsphate ester, ASTP.
(§7) ^1 Enzymolysis was done at 25° by stirring 200 micromoles of
(§8) magnesium Lascorbate 2phosphate or ammonium Lascorbate 2triphosphate in
(§9) 100 ml of 0.05 M acetate buffer (pH 5.0) containing about 400 mg of
(§10) bakers' compressed yeast and 2 units of phosphatase (1 unit activity
(§11) hydrolyzes 1 μmole of pnitrophenyl phosphate at pH 4.8 and 37°)
(§12) At a given reaction time, an aliquot (5 ml) was removed, mixed with 5.0 m
(§13) of 12% trichloroacetic acid/4% metaphosphoric acid, and the mixture
(§14) filtered. An aliquot (5 ml) of the filtrate was titrated with
(§15) 2,6dichlorophenolindophenol to a pink endpoint. Blank solutions contained
(§16) all reagents except phosphatase.

[9] = in vitro; assay type: in vitro ADME, potato; settings: potato, ph 5.0 acetate buffer, pH 5
Experimental: as §6, §7, §8, §9, §10, §11, §12, §13, §14, §15, §16

[10] = Stabilization of L-ascorbate against autoxidation in aqueous medium at pH 7; assay type: physicochemical
[11] = tested on: guinea pigs; test: Guinea pig feeding study of vitamin C activity; assay type: in vivo; settings: 15.4 mg per kg of body weight per day orally, equivalent to 5.0 mg of L-ascorbic acid
Experimental: English short-hair guinea pigs were housed individually in a cage and fed Purina guinea pig ration during a one-week acclimation period. The young pigs (190-250 g) were divided into four groups of 10 animals each. One group was fed a diet devoid of vitamin C (Reid-Briggs guinea pig diet, U.S. Biochemicals, Cleveland, Ohio); the second group received the same diet but supplemented with 5.0 mg of L-ascorbic acid per kg of body weight per day; the third group received 15.4 mg of purified tetrasodium L-ascorbate 2-triphosphate dihydrate (L-ascorbate 2-tri-PO4, purified) per kg of body weight per day; and the fourth group received 15.4 mg of tetra-sodium L-ascorbate 2-triphosphate dihydrate (L-ascorbate 2-tri-PO4, reaction mixture) in admixture with the by-products of the reaction mixture as set forth in Example I, except the small amount of unreacted L-ascorbic acid in the reaction mixture was destroyed by O2 -oxidation (the 15.4 mg of tetrasodium L-ascorbate 2-triphosphate dihydrate is equivalent to 5.0 mg of L-ascorbic acid). The vitamin C was administered orally with a calibrated syringe from solutions kept at 5° C., except the L-ascorbic acid solution was prepared fresh daily. The weights of the animals were recorded daily, and the arithmetic means of each group were calculated and compared in the FIGURE.

[12] = pH 5, Table I, all reagents except phosphatase
[13] = pH 5, Table II, blank without phosphatase (wheat flour)

SMILES: O=C1O[C@H]([C@@H](O)CO)C(O)=C1OS(=O)(=O)O [2-sulfate ester]
- vitamin C activity [1]: not an active source of vitamin C
- vitamin C activity [2]: not an active source of vitamin C
- vitamin C activity [3]: it is in fish

- degraded at 0.25 h [4, 12]: 0%
- degraded at 0.5 h [4, 12]: 0%
- degraded at 1 h [4, 12]: 0%
- degraded at 2 h [4, 12]: 2.9%
- degraded at 3 h [4, 12]: 4.6%
- degraded at 4 h [4, 12]: 4.6%
- degraded at 8 h [4, 12]: 8.1%
- degraded at 20 h [4, 12]: ~15%
- degraded at 0.25 h [4, 13]: 0%
- degraded at 0.5 h [4, 13]: 0%
- degraded at 1 h [4, 13]: 0%
- degraded at 2 h [4, 13]: 2.9%
- degraded at 3 h [4, 13]: 4.6%
- degraded at 4 h [4, 13]: 4.6%
- degraded at 5 h [4, 13]: 5.8%
- degraded at 20 h [4, 13]: 14.5%
- time to complete hydrolysis [5]: 1 h
- metabolised at 0.25 h [6]: 47.1%
- metabolised at 0.5 h [6]: 76.2%
- metabolised at 1 h [6]: 100%
- metabolised at 2 h [6]: 100%
- metabolised at 3 h [6]: 100%
- metabolised at 4 h [6]: 100%
- metabolised at 5 h [6]: 100%
- metabolised at 20 h [6]: 100%
- Stability (% Remaining) when reacted with aqueous hydrogen peroxide ([7]; 192 h): 44.1%
- remaining at 0.25 h [7]: 98.7%
- remaining at 1 h [7]: 97.1%
- remaining at 24 h [7]: 93.9%
- remaining at 72 h [7]: 77.7%
- remaining at 144 h [7]: 64.1%
- remaining at 192 h [7]: 44%
- remaining at 336 h [7]: 0%
- rate of release of L-ascorbic acid when treated with purified phosphatase from potato (comparison in words) [8]: much faster than ASTP
- metabolised at 0.25 h [9]: 9.3%
- metabolised at 0.5 h [9]: 18.6%
- metabolised at 1 h [9]: 35.5%
- metabolised at 2 h [9]: 60.5%
- metabolised at 3 h [9]: 77.3%
- metabolised at 4 h [9]: 88.4%
- metabolised at 8 h [9]: 100%
- metabolised at 20 h [9]: 100%
SMILES: O=C1O[C@H]([C@@H](O)CO)C(O)=C1OP(=O)(O)O [ASMP, L-Ascorbate 2-phosphate]

SMILES: O=C1O[C@H]([C@@H](O)CO)C(O)=C1OP(=O)(O)OP(=O)(O)OP(=O)(O)O [ASTP, L-ascorbate 2-triphosphate]
- degraded at 0.25 h [4, 12]: 0%
- degraded at 0.5 h [4, 12]: 0%
- degraded at 1 h [4, 12]: 0%
- degraded at 2 h [4, 12]: 0%
- degraded at 3 h [4, 12]: 0%
- degraded at 4 h [4, 12]: 0%
- degraded at 8 h [4, 12]: 0%
- degraded at 20 h [4, 12]: 0%
- degraded at 0.25 h [4, 13]: 0%
- degraded at 0.5 h [4, 13]: 0%
- degraded at 1 h [4, 13]: 0%
- degraded at 2 h [4, 13]: 0%
- degraded at 3 h [4, 13]: 0%
- degraded at 4 h [4, 13]: 0%
- degraded at 5 h [4, 13]: 0%
- degraded at 20 h [4, 13]: 0%
- time required for 95% hydrolysis [5]: 10 to 20 h
- metabolised at 0.25 h [6]: 0%
- metabolised at 0.5 h [6]: 1.2%
- metabolised at 1 h [6]: 3.5%
- metabolised at 2 h [6]: 29.6%
- metabolised at 3 h [6]: 65.8%
- metabolised at 4 h [6]: 86.9%
- metabolised at 5 h [6]: 93.1%
- metabolised at 20 h [6]: 95%
- stabilization of L-ascorbate against autoxidation by the substance [10]: L-ascorbate is stabilized against autoxidation by ASTP
- stability to oxidation compared with ASMP [7]: more stable to oxidation than ASMP
- Stability (% Remaining) when reacted with aqueous hydrogen peroxide ([7]; 336 h): 55.2%
- remaining at 0.25 h [7]: 98.6%
- remaining at 1 h [7]: 98.3%
- remaining at 24 h [7]: 96.7%
- remaining at 72 h [7]: 87.6%
- remaining at 144 h [7]: 83.3%
- remaining at 192 h [7]: 77%
- remaining at 336 h [7]: 55%
- metabolised at 0.25 h [9]: 0%
- metabolised at 0.5 h [9]: 0%
- metabolised at 1 h [9]: 0%
- metabolised at 2 h [9]: 0%
- metabolised at 3 h [9]: 0.4%
- metabolised at 4 h [9]: 0.8%
- metabolised at 8 h [9]: 3.5%
- metabolised at 20 h [9]: 8.5%

SMILES: O.O.O=C1O[C@H]([C@@H](O)CO)C([O-])=C1OP(=O)([O-])OP(=O)([O-])OP(=O)([O-])O.[Na+].[Na+].[Na+].[Na+] [L-ascorbate 2-tri-PO4, purified, tetrasodium L-ascorbate 2-triphosphate dihydrate]
- growth rate (mean body weight) compared with group fed equivalent L-ascorbic acid [11]: grew at a rate equal to that of the group fed an equivalent amount of L-ascorbic acid

- time to destruction by hydrogen peroxide ([7]; pH 7, 25° C.): destroyed in less than one hour
- remaining at 0.25 h [7]: 56.9%
- remaining at 1 h [7]: 0%
- remaining at 24 h [7]: 0%
- remaining at 72 h [7]: 0%
- remaining at 144 h [7]: 0%
- remaining at 192 h [7]: 0%
- remaining at 336 h [7]: 0%
SMILES: O=C1O[C@H]([C@@H](O)CO)C(O)=C1O [Parent Compd, L-ascorbic acid]
